Values quoted from earlier work in US20200367500A1, “MICROCAPSULES WITH BIOCIDES FOR THEIR INCORPORATION INTO REPELLENT AND/OR INSECTICIDE COATINGS” (priority 2019, published 2020).
“Also recorded” adds a separate entry of the source. Where two headings read alike, the source gives them in different places.

Details: for Decomposition time (Mean life): aqueous medium; for Stability in aqueous medium, in words: pH as stated in the value

Compound	Decomposition time (Mean life) (pH 9)	Stability in aqueous medium, in words	other results
CCN(CC)c1nc(C)cc(OP(=S)(OC)OC)n1 [Pirimiphos-methyl]	–	–	Decomposition time (Mean life) (pH 5): 7 days; Decomposition time (Mean life) (pH 8): 5 days
CCOP(=S)(OCC)Oc1cc(C)nc(C(C)C)n1 [Diazinon]	136 days	–	Decomposition time (Mean life) (pH 5): 31 days; Decomposition time (Mean life) (pH 7.5): 185 days
CC1(C)C(C=C(Cl)Cl)C1C(=O)OCc1cccc(Oc2ccccc2)c1 (centres unmarked) [Permethrin]	–	Stable at pH between 5 and 6.	–
O=C(NC(=O)c1c(F)cccc1F)Nc1ccc(Cl)cc1 [Diflubenzuron]	–	Stable in a pH range from 5 to 7; also recorded: Hydrolyzed at pH 9	–
CC1(C)[C@H](C(=O)O[C@H](C#N)c2cccc(Oc3ccccc3)c2)[C@@H]1C=C(Br)Br [Deltamethrin]	–	more stable in medium acid solutions	Decomposition time (Mean life) (pH 7): 0.33 days
CC1(C)C(C=C(Cl)Cl)C1C(=O)OC(C#N)c1cccc(Oc2ccccc2)c1 (centres unmarked) [Cypermethrin]	7 days	–	–
C=CCC1=C(C)C(OC(=O)C2C(C=C(C)C)C2(C)C)CC1=O [D-allethrin]	(4.3 days)	Stable at pH 5 after 31 days	Decomposition time (Mean life) (pH 7): 500 days
CCOC(=O)CC(SP(=S)(OC)OC)C(=O)OCC (centres unmarked) [Malathion]	–	Quickly hydrolyzed at pH over 7. The optimal pH	–
CCOP(=S)(OCC)Oc1nc(Cl)c(Cl)cc1Cl [Chlorpyrifos]	–	Stable in neutral and slightly	Decomposition time (Mean life) (pH 10): 7 days
CC(COc1ccc(Oc2ccccc2)cc1)Oc1ccccn1 (centres unmarked) [Pyriproxifen]	–	Stable in pH between 4 and 9.	–
